These results are taken from patent US9399637B2, “Substituted heteroaryl compounds and methods of use” (Calitor Sciences, LLC, priority 2014, dated 2016).

The nature of data set [1]: Compound stability in rat liver microsomes. Type of data set: in vitro ADME. The note with it: pH 7.4; for half-life at 5 μM: rat liver microsomes 0.5 mg protein/mL, compound 5 μM, NADPH, 37° C., read-out: Rat T1/2; for CLint scaled at 5 μM: rat liver microsomes, in vivo CLint extrapolated. The method, then: Human or rat liver microsomes incubations were conducted in duplicate in polypropylene tubes. The typical incubation mixtures consisted of human or rat liver microsomes (0.5 mg protein/mL), compounds of interest (5 μM) and NADPH (1.0 mM) in a total volume of 200 μL potassium phosphate buffer (PBS, 100 mM, pH 7.4). Compounds were dissolved in DMSO and diluted with PBS such that the final concentration of DMSO was 0.05%. The enzymatic reactions were commenced with the addition of […] after a 3-min preincubation and incubated in a water bath open to the air at 37° C. Reactions were terminated at various time points (0, 5, 10, 15, 30, 60 min) by adding equal volume of ice-cold acetonitrile. The samples were stored at […] until LC/MS/MS assays.
The concentrations of compounds in the incubation mixtures of human or rat liver microsomes were determined by a LC/MS/MS method. The ranges of the linearity in the concentration range were determined for each tested compounds.
A parallel incubation was performed using denatured microsomes as the negative control, and reactions were terminated at various time points (0, 15, 60 min) after incubation at 37° C.
Dextromethorphan (70 μM) was selected as the positive control, and reactions were terminated at various time points (0, 5, 10, 15, 30, 60 min) after incubation at 37° C. Both positive and negative control samples were included in each assay to ensure the integrity of the microsomal incubation system.
The concentrations of compounds in human or rat liver microsome incubations were plotted as a percentage of the relevant zero time point control for each reaction. The in vivo CLint were extrapolated (ref.: Naritomi, Y.; Terashita, S.; Kimura, S.; Suzuki, A.; Kagayama, A.; and Sugiyama, Y.; Prediction of human hepatic clearance from in vivo animal experiments and in vitro metabolic studies with liver microsomes from animals and humans. Drug Metab. Dispos., 2001, 29: 1316-1324).

For a further data set, the target named is T1, JAK3 (h) (Homo sapiens, UniProt P52333).
T1 construct: purchased Millipore UK Ltd (assays run there as a service)
T1 sequence (P52333 1-1124): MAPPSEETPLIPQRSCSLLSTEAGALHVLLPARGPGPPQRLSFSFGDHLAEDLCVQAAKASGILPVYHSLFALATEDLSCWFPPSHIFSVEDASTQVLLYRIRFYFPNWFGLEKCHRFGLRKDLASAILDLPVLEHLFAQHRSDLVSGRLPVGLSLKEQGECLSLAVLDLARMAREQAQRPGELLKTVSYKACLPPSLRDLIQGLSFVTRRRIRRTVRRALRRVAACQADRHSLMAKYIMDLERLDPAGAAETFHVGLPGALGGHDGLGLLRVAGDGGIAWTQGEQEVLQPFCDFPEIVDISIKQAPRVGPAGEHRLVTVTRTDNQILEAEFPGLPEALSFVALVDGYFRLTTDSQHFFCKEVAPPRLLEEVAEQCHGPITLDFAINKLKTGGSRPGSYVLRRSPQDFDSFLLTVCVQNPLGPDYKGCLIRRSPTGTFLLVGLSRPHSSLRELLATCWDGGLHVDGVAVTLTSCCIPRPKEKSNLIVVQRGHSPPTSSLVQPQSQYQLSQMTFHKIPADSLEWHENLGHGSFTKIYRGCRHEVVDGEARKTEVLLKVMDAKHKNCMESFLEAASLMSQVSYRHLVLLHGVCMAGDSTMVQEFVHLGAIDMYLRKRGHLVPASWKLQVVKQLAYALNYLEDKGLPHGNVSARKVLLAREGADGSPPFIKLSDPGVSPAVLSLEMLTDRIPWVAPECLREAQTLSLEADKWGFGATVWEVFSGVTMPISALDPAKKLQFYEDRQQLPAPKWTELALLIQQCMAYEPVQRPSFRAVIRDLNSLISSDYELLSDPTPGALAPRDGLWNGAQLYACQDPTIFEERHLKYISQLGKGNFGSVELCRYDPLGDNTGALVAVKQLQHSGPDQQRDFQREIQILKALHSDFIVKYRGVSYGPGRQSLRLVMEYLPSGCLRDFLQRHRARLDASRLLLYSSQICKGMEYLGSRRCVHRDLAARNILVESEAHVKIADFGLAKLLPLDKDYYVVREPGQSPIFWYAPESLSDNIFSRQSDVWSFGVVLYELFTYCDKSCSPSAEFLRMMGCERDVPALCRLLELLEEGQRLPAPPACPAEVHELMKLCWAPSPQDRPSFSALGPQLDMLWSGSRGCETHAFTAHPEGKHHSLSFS
Nature of the data set: JAK3 kinase assay. Format: biochemical. The procedure: Kinase assays can be performed by measurement of incorporation of γ-^33P ATP into immobilized myelin basic protein (MBP). High binding white 384 well plates (Greiner) are coated with MBP (Sigma #M-1891) by incubation of 60 μL/well of 20 μg/mL MBP in Tris-buffered saline (TBS; 50 mM Tris pH 8.0, 138 mM NaCl, 2.7 mM KCl) for 24 h at 4° C. Plates are washed 3× with 100 μL TBS. Kinase reactions are carried out in a total volume of 34 μL in kinase buffer (5 mM Hepes pH 7.6, 15 mM NaCl, 0.01% bovine gamma globulin (Sigma #I-5506), 10 mM MgCl2, 1 mM DTT, 0.02% TritonX-100). Compound dilutions are performed in DMSO and added to assay wells to a final DMSO concentration of 1%. Each data point is measured in duplicate, and at least two duplicate assays are performed for each individual compound determination. Enzyme is added to final concentrations of 10 nM or 20 nM, for example. A mixture of unlabeled ATP and γ-^33P ATP is added to start the reaction (2×10^6 cpm of γ-^33P ATP per well (3000 Ci/mmole) and 10 μM unlabeled ATP, typically. The reactions are carried out for 1 h at room temperature with shaking Plates are washed 7× with TBS, followed by the addition of 50 μL/well scintillation fluid (Wallac). Plates are read using a Wallac Trilux counter. This is only one format of such assays; various other formats are possible, as known to one skilled in the art. […]

With `Cc1c2ccc(Nc3ncc(Cl)c(NC4CC5CN(C(=O)CC#N)CC5C4)n3)cc2nn1C` (stereo not drawn) [Ex. 4, 3-(5-((5-chloro-2-((2,3-dimethyl-2H-indazol-6-yl)amino)pyrimidin-4-yl)amino)hexahydrocyclopenta[c]pyrrol-2(1H)-yl)-3-oxopropanenitrile], in data set [1], the half-life at 5 μM came out at 25.3 min and the CLint scaled at 5 μM is 98.3 mL/min/kg. The same compound had a half-maximal inhibitory concentration (IC50) on JAK3 (h) of 535 nM.
Taken in the same sequence, the figures for `CC(=O)N1CCC2(CCC(Nc3nc(Nc4ccc5c(C)n(C)nc5c4)ncc3Cl)CC2)CC1` [Ex. 7, 1-(9-((5-chloro-2-((2,3-dimethyl-2H-indazol-6-yl)amino)pyrimidin-4-yl)amino)-3-azaspiro[5.5]undecan-3-yl)ethanone] were 29.3 min, 84.8 mL/min/kg and 142 nM.

The term CLint scaled denotes the rate of metabolic loss divided by the concentration. In general, IC50 refers to the concentration that gives 50% inhibition. A higher IC50 goes with weaker potency.
